{"source": "patent US20240374626A1", "about": "“METHODS OF ENHANCING MILK PRODUCTION IN LACTATING MAMMALIAN SUBJECTS” (priority 2023, published 2024)", "key": {"HC11 cells [1]": {"test_system": "HC11 cells", "assay": "FACS DNA content analysis of HC11 cells during lactogenic differentiation", "type": "cell-based, mouse", "conditions": "HC11, doxorubicin 50 nM", "experimental": "The HC11 cell line was obtained from American Type Culture Collection (ATCC) and routinely checked for mycoplasma (Mycoplasma PCR kit, ABM, G238). Undifferentiated HC11 cells were cultured in growing medium (RPMI-1640; Thermo Fisher Scientific, 72400047), supplemented with 10% FBS, 5 μg/ml insulin (Millipore-Sigma, 16634), 10 ng/ml epidermal growth factor (EGF; Preprotech, AF-100-15) and 1× AntiAnti (Thermo Fisher Scientific, 15240112) at 37° C. with 5% CO2. Cells were grown to confluency and maintained in growing medium for 2 days, until they became competent. Competent HC11 cells were primed for differentiation by culturing them in priming medium [RPMI-1640 supplemented with 5 μg/ml insulin, 1 μM dexamethasone (Millipore-Sigma, D4902-1 G) and 1× Anti-Anti] for 24 h at 37° C. with 5% CO2. To induce differentiation, primed HC11 cells were cultured in DIP Medium [RPMI-1640, supplemented with 10% FBS, 5 μg/ml insulin, 1 μM dexamethasone, 1× anti-anti and 3 μg/ml Prolactin (NHPP, oPRL-21)] at 37° C. with 5% CO2.\n(§1) […] Drugs were maintained through the differentiation process and added with every change of media.\nFor DNA content analysis of the mammary gland CK8^+ epithelial population, mammary gland cells suspension was obtained as described above. Cells were fixed in ice-cold 70% EtOH at a final concentration of 10^6 cells/ml. During fixation, cells were vigorously vortexed for 1 min to avoid the formation of cell aggregates. Cells were washed twice with washing buffer [1×PBS containing 5% FBS and 0.5% tween 20 (Fisher Chemical, BP337500)] and centrifuged at 2,000 rpm for 5 min at 4° C. Cell pellet was incubated for 1 h at room temperature with anti-CK8 (Developmental Studies Hybridoma Lab, TROMA-1), anti-GFP (Thermo Fisher, A01704) or corresponding rat (Thermo-Fisher, 10700) or rabbit (Thermo-Fisher, 10500C) IgG isotype controls. Cells were washed twice and incubated for 1 h at room temperature in darkness with FITC anti-Rat (Thermo Fisher, A24544) or FITC anti-Rabbit (Thermo Fisher, A16030) and APC anti-Rat (Jackson ImmunoResearch, 712-136-153). Cells were washed twice and resuspended in propidium iodide solution [1×PBS containing 25 μg/ml of propidium iodide (Thermo Fisher, P3566) and 100 μg/ml of RNAse (Thermo Fisher, 12091021)]. For DNA content analysis on HC11, cells were washed with 1×DPBS (GIBCO, 14190-250) and harvested using 0.05% Trypsin-EDTA (GIBCO, 25300-062). Cell suspension was washed with 1×DPBS and centrifuged at 1,000 rpm for 5 min at 4° C. Cell pellet was fixed in ice-cold 70% EtOH and then vortexed vigorously to avoid cell aggregates. After fixation, cells were washed with washing buffer [1×PBS (GIBCO, 14190136) supplemented with 5% FBS] and centrifuged at 2,000 rpm for 5 min at 4° C. The pellet was resuspended in propidium iodide solution. Cell suspensions were filtered through a 70 μm cell strainer (Falcon, 08-771-2) and analyzed using a BD LSRII cytometer or a BD FACS Aria II Cell Sorter. Populations were analyzed using FlowJo."}, "HC11 cells [2]": {"test_system": "HC11 cells", "assay": "Visualization of FACS-purified HC11 subpopulations sorted on DNA content (nuclei number)", "type": "cell-based, mouse", "conditions": "HC11, doxorubicin 50 nM, FACS-purified population", "experimental": "as §1\nMammary gland CK8+ epithelial cells or HC11 were sorted based on DNA content using BD FACS Aria II Cell Sorter. After sorting, cells were stained in suspension using Phalloidin-iFluor 488 Reagent (Abcam, ab176753) for 30 min at room temperature in darkness. Cells were spined down onto microscopy slides (Fisher, 12-550-15) using Cytospin 2 (Shandon, 599X52) at 500 rpm for 3 min. Cells were mounted using fluoromount-G (Southern Biotech, 0100-01) and visualized using Zeiss Axio Imager Microscope."}}, "data": [{"molecule": "COc1cccc2c1C(=O)c1c(O)c3c(c(O)c1C2=O)C[C@@](O)(C(=O)CO)C[C@@H]3O[C@H]1C[C@H](N)[C@H](O)[C@H](C)O1", "note": "[doxorubicin]", "values": [{"measurement": "polyploidization (FACS DNA content)", "setting": "HC11 cells [1]; DIP3", "result": "increase in polyploidization"}, {"measurement": "proportion of tetraploid cells (FACS DNA content)", "setting": "HC11 cells [1]; after 24 h", "result": "increases"}, {"measurement": "nuclei number of polyploid cells generated", "setting": "HC11 cells [2]", "result": "generated both mono- and binucleated polyploid cells"}]}]}
